Experiments:
[1] = tested on: mouse derived macrophage like cell J774.1
Method: With regard to arteriosclerotic athero model, mouse derived macrophage like cell J774.1 was used. PDT was performed after contacting with the second generation photosensitive substance ATX-S10 (ATX-S10 Na(II) (K.K. Hikari Chemical Lab.)) with good excretion, concentration of 6 μg/ml for 24 hours.
Irradiation of the light was performed with the light source: excimer dye laser (EDL-1, Hamamatsu Photonix Co., wavelength 670 nm, pulse width 10 ns); pulse energy density 1.2 to 9.5 mJ/cm^2 (corresponding to peak intensity […]); and repetition frequency 5 to 80 Hz. PDT effect as evaluated by a rate of cell death using MTT after performing for 24 hours.
Measurement was performed in concentration of administered photosensitive substance at 25 μg/ml and 50 μg/ml.

[2] = concentration 6 μg/ml

Question: What does the source list for `C=Cc1c(C)c2cc3nc(cc4[nH]c(cc5nc(cc1[nH]2)C(C)=C5CCC(=O)NC(CC(=O)[O-])C(=O)[O-])c(CCC(=O)NC(CC(=O)[O-])C(=O)[O-])c4C)C(C)(O)/C3=C\C=NO.[Na+].[Na+].[Na+].[Na+]` (stereo not shown) [ATX-S10, Iminochlorin aspartic acid derivative]?
Answer: PDT effect (rate of cell death) ([1]; 6 μg/ml for 24 hours, excimer dye laser 670 nm, pulse width 10 ns, high pulse energy density (high peak intensity), repetition frequency 5 to 80 Hz, MTT after 24 hours): PDT effect almost disappeared; rate of cell death at maximum ([1]; 6 μg/ml for 24 hours, excimer dye laser 670 nm, pulse width 10 ns, low pulse energy density (low peak intensity), repetition frequency 5 to 80 Hz, MTT after 24 hours): ≤ 70%; rate of cell death with changing irradiation energy density ([1]; 25 μg/ml and 50 μg/ml, same irradiation energy density): rate of cell death is different, if the concentration of photosensitive substance is different; changes of absorption (bleaching) with changing irradiation energy density [2]: depends on total irradiation energy (J/cm^2) and not on peak intensity

From patent US20060282132A1, “Photodynamic therapy equipment, method for controlling photodynamic therapy equipment and method of photodynamic method” (KEIO UNIVERSITY, priority 2003, published 2006)
